# In article PMC3914206:
# Key:
# Type in all cases: binding
# Conditions in all cases: Compound Concentration 10 µM
# [1] = target: T1, panel of 442 kinases (Homo sapiens, UniProt Q07002)
# T1 construct: purchased KINOMEscan
# From the text: (§1) We assessed the selectivity of members of this scaffold using the KINOMEscan methodology across a near comprehensive panel of 442 kinases [[18,27]].
# [2] = target: T2, panel of 442 kinases (Homo sapiens, UniProt Q9UIK4)
# T2 construct: purchased KINOMEscan
# From the text: as §1
# [3] = target: T3, panel of 442 kinases (Homo sapiens, UniProt Q8IVH8)
# T3 construct: purchased KINOMEscan
# T3 sequence (Q8IVH8 1-894): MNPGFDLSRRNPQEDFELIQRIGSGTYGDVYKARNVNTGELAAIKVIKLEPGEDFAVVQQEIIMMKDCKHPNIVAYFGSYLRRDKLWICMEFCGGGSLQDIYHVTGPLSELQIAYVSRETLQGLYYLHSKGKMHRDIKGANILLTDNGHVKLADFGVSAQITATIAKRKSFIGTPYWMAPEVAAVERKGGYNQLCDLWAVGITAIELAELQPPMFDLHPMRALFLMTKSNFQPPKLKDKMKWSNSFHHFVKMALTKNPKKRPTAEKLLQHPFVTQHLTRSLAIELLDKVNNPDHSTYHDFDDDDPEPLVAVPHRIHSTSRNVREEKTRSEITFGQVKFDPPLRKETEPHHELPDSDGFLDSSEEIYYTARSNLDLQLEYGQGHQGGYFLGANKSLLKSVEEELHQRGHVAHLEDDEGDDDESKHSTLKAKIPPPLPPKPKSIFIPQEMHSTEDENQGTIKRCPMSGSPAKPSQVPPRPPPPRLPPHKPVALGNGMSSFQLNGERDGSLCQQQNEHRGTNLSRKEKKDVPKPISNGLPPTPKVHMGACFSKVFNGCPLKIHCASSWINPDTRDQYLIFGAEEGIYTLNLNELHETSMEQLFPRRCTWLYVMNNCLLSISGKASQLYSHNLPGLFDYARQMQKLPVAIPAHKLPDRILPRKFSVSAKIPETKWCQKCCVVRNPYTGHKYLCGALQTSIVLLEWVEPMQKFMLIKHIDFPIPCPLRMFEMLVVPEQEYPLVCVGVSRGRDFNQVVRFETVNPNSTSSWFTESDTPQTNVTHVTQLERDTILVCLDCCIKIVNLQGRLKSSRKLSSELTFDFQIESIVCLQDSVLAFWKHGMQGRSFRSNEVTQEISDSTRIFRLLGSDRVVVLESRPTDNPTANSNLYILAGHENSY
# From the text: as §1
# T2 sequence (Q9UIK4 whole entry): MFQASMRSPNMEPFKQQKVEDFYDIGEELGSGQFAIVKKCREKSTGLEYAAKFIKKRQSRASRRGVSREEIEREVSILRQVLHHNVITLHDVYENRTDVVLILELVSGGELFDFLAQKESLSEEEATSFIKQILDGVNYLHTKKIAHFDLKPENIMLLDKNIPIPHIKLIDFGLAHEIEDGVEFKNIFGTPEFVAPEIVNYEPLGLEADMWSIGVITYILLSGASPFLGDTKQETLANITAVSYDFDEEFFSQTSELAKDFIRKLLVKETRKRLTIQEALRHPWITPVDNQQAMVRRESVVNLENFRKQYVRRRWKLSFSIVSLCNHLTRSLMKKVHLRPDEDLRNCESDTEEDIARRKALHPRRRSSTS
# T1 sequence (Q07002 whole entry): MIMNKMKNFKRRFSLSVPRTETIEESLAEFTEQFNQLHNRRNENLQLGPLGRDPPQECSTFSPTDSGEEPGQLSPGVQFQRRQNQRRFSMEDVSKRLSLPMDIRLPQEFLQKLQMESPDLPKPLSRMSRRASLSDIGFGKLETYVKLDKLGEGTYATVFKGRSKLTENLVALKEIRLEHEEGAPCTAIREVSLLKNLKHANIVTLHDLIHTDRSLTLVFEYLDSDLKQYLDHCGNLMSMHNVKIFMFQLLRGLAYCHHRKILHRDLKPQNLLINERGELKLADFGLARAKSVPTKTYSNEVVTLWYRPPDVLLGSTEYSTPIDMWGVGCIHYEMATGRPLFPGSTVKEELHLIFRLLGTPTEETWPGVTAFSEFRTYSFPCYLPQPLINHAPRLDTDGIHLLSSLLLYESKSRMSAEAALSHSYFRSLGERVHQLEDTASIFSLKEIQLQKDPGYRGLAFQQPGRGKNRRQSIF
Structure (SMILES),KINOMEscan: PCTK3 [1],KINOMEscan: DAPK2 [2],KINOMEscan: MAP4K3 [3]
"COc1cc(C(=O)N2CCC(N3CCN(C)CC3)CC2)ccc1Nc1ncc2c(n1)N(C1CCCC1)c1ccccc1C(=O)N2C [Compound 25, 11-cyclopentyl-2-((2-methoxy-4-(4-(4-methylpiperazin-1-yl)piperidine-1-carbonyl)phenyl)amino)-5-methyl-5H-benzo[e]pyrimido[5,4-b][1,4]diazepin-6(11H)-one]",100,90,100
CCOc1cc(C(=O)N2CCC(N3CCN(C)CC3)CC2)ccc1Nc1ncc2c(n1)N(C1CCCC1)c1ccccc1C(=O)N2C [Compound 26],100,99,98
COc1cc(C(=O)N2CCC(N3CCN(C)CC3)CC2)ccc1Nc1ncc2c(n1)N1CCc3cccc(c31)C(=O)N2C [Compound 24],,22,
COc1cc(C(=O)N2CCC(N3CCN(C)CC3)CC2)ccc1Nc1ncc2c(n1)N(C)c1ccccc1C(=O)N2C [15 (LRRK2-IN-1)],100,67,71
